Source: patent US11834391B2, “Pantothenamide analogues” (MMV MEDICINES FOR MALARIA VENTURE, priority 2018, dated 2023)

How the values were obtained:
[1] = test system: P. falciparum NF54 asexual blood stage parasites; assay: Replication assay for asexual blood-stage parasites (SYBR Green); format: cell-based; conditions: Plasmodium falciparum; P. falciparum NF54, 72 h incubation, 10% human serum; average of at least two replicate experiments; read-out: antimalarial IC50 asexual blood stages
Protocol: (§1) Plasmodium falciparum strain NF54 was cultured in Roswell Park Memorial Institute (RPMI) 1640 medium supplemented with 25 mM NaHCO3, 10% human type A serum and 5% (v/v) human type 0 red blood cells (Sanquin, the Netherlands). Replication assays for asexual blood-stage parasites were performed by diluting parasites in RPMI1640 medium with 10% human serum to a parasitemia of 0.83% and a hematocrit of 3%. 30 μl of diluted parasites were combined with 30 μl of compound serially diluted in DMSO and RPMI1640 medium to reach a final DMSO concentration of 0.1% in a total assay volume of 60 μL. Following a 72 h incubation at 37 ° C., 3% O2, 4% CO2, 30 μL of diluted SYBR® Green reagent was added according to the instructions of the manufacturer (Life Technologies) and fluorescence intensity was quantified using a Biotek Synergy® 2 plate reader. Gametocyte viability assays were initiated by inoculating a culture flask with 1% asexual blood-stage parasites in 5% haematocrit in RPMI1640 medium with 10% human serum. From day 4 to day 9 after inoculation, cultures were treated with 50 mM N-acetylglucosamine to eliminate asexual blood-stage parasites. At day 11 post inoculation, gametocytes (predominantly stage IV) were isolated by Percoll® density gradient centrifugation. Gametocytes were seeded at a density of 5,000 cells/well in a 384 well plate and combined with compound diluted in DMSO and subsequently in RPMI1640 medium to reach a final DMSO concentration of 0.1% in a volume of 60 μL RPMI1640 medium with 10% human serum. Following a 72 h incubation at 37 ° C., 3% O2, 4% CO2, 30 μL of ONE-Glo® reagent (Promega) was added and luminescence was quantified using a Biotek Synergy 2 reader. IC50 values were derived by fitting a four parameter logistic regression model to the data using least squares to find the best fit.

[2] = test system: P. falciparum NF54 gametocytes; assay: Gametocyte viability assay (ONE-Glo luminescence); format: cell-based; conditions: Plasmodium falciparum; P. falciparum NF54 gametocytes (predominantly stage IV), 72 h incubation, 10% human serum; average of at least two replicate experiments; read-out: antimalarial IC50 gametocytes
Protocol: as §1

[3] = test system: P. falciparum strain Pf3D70087/N9; assay: In vivo antimalarial activity in humanized mouse model for P. falciparum infection; set-up: species or system Plasmodium falciparum
Protocol: Reduction of existing parasitemia in vivo was investigated using a humanized mouse model for P. falciparum infection. Female NODscidIL2Rynull mice were engrafted by daily intravenous injection of 0.6 ml of human blood for 11 days. Subsequently, mice were infected with P. falciparum strain Pf3D70087/N9 by injecting 2.10^7 parasites in a volume of 0.2 ml. Four days post infection, mice were treated with a single 50 mg/kg dose of test compound. To this end, compounds were formulated in 70% Tween®-80 (d=1.08g/ml) and 30% ethanol (d=0.81g/ml), followed by a 10-fold dilution in H2O and administered by oral gavage. Parasitemia was followed by daily collection of 2 μl tail blood. The hematocrit was determined by fluorescence-activated cell sorting (FACS) and parasitemia by microscopy on >10,000 red blood cells. […] The compounds indicated at the legend were dosed as a single oral dose of 50 mg/kg at day 4 post infection (indicated by the arrow) and parasitemia was followed for another three days. The data shown in FIG. 1 indicate that all pantothenamide analogues tested show a dramatic reduction in blood stage parasitemia at a single oral dose of 50 mg/kg.

[4] = Metabolic stability in human primary hepatocytes (hepatocyte relay assay); format: in vitro ADME; conditions: primary hepatocytes (hepatocyte relay assay), human primary hepatocytes, relay assay, 10 μM, average of two replicate experiments; for half-life at 10 μM: read-out: T½ average
Protocol: (§2) Metabolic stability of compounds of the invention was assessed in a hepatocyte relay assay. Human primary hepatocytes (Xenotech) were cultured in collagen coated 96-well plates in Williams E (Gibco® 32551087) supplemented with 1% PenStrep (Gibco 15140-122), 1% Fungizone® (Gibco 15290026), 10% heat-inactivated fetal bovine serum (hiFBS) (Gibco 10270-106), 0.1 IU/ml insulin (Sigma 12643) and 7μM hydrocortisone hemisuccinate (Sigma H2270) at 37° C. and 5% CO2. Test compounds were added to a final concentration of 10 μM in 0.1 DMSO. Every 24 hours, the cell supernatant was transferred to freshly plated, metabolically full active cells. At regular time intervals, aliquots of supernatants were frozen for future analysis. At the end of the incubation, all samples were thawed and compound levels in time were determined by LC-MS analyses. Data were analysed by linear regression.

[5] = test system: Human primary hepatocytes; assay: as above; format: in vitro ADME; conditions: comparative example
Protocol: as §2

[6] = female NODscidIL2Rγnull mice, single oral dose 50 mg/kg at day 4 post infection
[7] = same protocol as example 16, relay assay

IC50 [1]	IC50 [2]	hepatocyte CLint at 10 μM [4]	half-life at 10 μM [4]	metabolic stability compared with the compounds of the invention (in words) [5]	Metabolic stability in human hepatocytes Clint [5, 7]	Metabolic stability in human hepatocytes T½ [5, 7]	SMILES	In vivo efficacy log reduction in parasitemia in Pf SCID mouse at 50 mg/kg p.o. 1 × QD [3, 6]	in vivo efficacy compared with the compounds of the invention (in words) ([3]; comparative example)	In vivo efficacy log reduction in parasitemia in Pf SCID mouse at 50 mg/kg p.o. 1 × QD ([3]; comparative example, same protocol as example 17, female NODscidIL2Rγnull mice)
2.1 nM	0.4 nM	–	–	–	–	–	C[C@@H](CNC(=O)[C@H](O)C(C)(C)CO)NC(=O)c1cccc(Cl)c1 [Compound F1, (2R)-N-[(2S)-2-[(3-chlorophenyl)formamido]propyl]-2,4-dihydroxy-3,3-dimethylbutanamide]	–	–	–
3.4 nM	0.2 nM	–	–	–	–	–	C[C@@H](CNC(=O)[C@H](O)C(C)(C)CO)NC(=O)c1ccc(F)c(Cl)c1 [Compound G1, (2R)-N-[(2S)-2-[(3-chloro-4-fluorophenyl)formamido]propyl]-2,4-dihydroxy-3,3-dimethylbutanamide]	–	–	–
7.4 nM	2.2 nM	0.3 µL/min/1e6 cells	84.1 h	–	–	–	C[C@@H](CNC(=O)[C@H](O)C(C)(C)CO)NC(=O)c1cccc(C#N)c1 [Compound C1, (2R)-N-[(2S)-2-[(3-cyanophenyl)formamido]propyl]-2,4-dihydroxy-3,3-dimethylbutanamide]	>3	–	–
–	–	–	–	substantially lower	0.8 μl/min/10^6 cells	29.403 h	C[C@H](CNC(=O)[C@@H](O)C(C)(C)CO)NC(=O)CCc1ccccc1F [MMV689258, reference compound]	–	substantially less efficacious	1.5
6.2 nM	21.4 nM	0.2 µL/min/1e6 cells	107 h	–	–	–	C[C@@H](CNC(=O)[C@H](O)C(C)(C)CO)NC(=O)c1cc(C#N)ccc1F [Compound B1, (2R)-N-[(2S)-2-[(5-cyano-2-fluorophenyl)formamido]propyl]-2,4-dihydroxy-3,3-dimethylbutanamide]	2.4	–	–
2.3 nM	0.4 nM	–	–	–	–	–	C[C@@H](CNC(=O)[C@H](O)C(C)(C)CO)NC(=O)c1cc(Cl)c(F)cc1F [Compound D1, (2R)-N-[(2S)-2-[(5-chloro-2,4-difluorophenyl)formamido]propyl]-2,4-dihydroxy-3,3-dimethylbutanamide]	–	–	–
1.9 nM	2 nM	0.5 µL/min/1e6 cells	42.2 h	–	–	–	C[C@@H](CNC(=O)[C@H](O)C(C)(C)CO)NC(=O)c1cccc(F)c1 [Compound E1, (2R)-N-[(2S)-2-[(3-fluorophenyl)formamido]propyl]-2,4-dihydroxy-3,3-dimethylbutanamide]	>3	–	–
2.4 nM	8 nM	0.4 µL/min/1e6 cells	59.4 h	–	–	–	C[C@@H](CNC(=O)[C@H](O)C(C)(C)CO)NC(=O)c1cc(F)c(F)cc1F [Compound A1, (2R)-2,4-dihydroxy-3,3-dimethyl-N-[(2S)-2-[(2,4,5-trifluorophenyl)formamido]propyl]butanamide]	>3	–	–
